Results from article PMC9103758 (International Journal of Molecular Sciences, 2022).
Where “and” joins values, the source holds several entries; their conditions need not be identical. Equal entries are not always repeated. Entries after “also recorded” stand apart in the source; their conditions may differ.

How the values were obtained:
NIH-3T3 cells = assay: Cell viability (MTS/MTT) in NIH-3T3 cells; assay type: cell-based; details: 24 h, up to/at 30 μM
Method: […]. (A) Structure of VI-116. (B) Representative YFP fluorescence traces. The inhibitory effects of VI-116 on VRAC activity were determined using YFP fluorescence assay in LN215 cells. VRAC was activated by application of […] solution for 5 min. (C) Summary of VRAC dose-response (mean ± S.E., n = 4). (D) Summary of VRAC dose−response with 10% FBS (mean ± S.E., n = 4). […].
NIH-3T3 cells were plated on 96-well microplates. After 24 h incubation, cells were treated with VI-116 or DCPIB and incubated for 24 h. The culture medium and the compounds were changed every 12 h. To assess cell proliferation, the cells were incubated with MTS for 1 h. The soluble formazan produced by the cellular reduction of MTS was quantified by measuring the absorbance at 490 nm with an Infinite M200 (Tecan, Grödig, Austria) microplate reader. MTS assay was performed using a CellTiter 96 Aqueous One Solution Cell Proliferation Assay kit (Promega, Madison, WI, USA).

[1] = molecular target: T1, VRAC-mediated chloride current (ICl, swell) in HEK293T cells (Homo sapiens, UniProt Q8IWT6); assay: Whole-cell voltage-clamp of ICl,swell in HEK293T cells; assay type: cell-based; details: dose-dependent
T1 construct: endogenous in cells; host or cells: HEK293T
T1 sequence (Q8IWT6 1-810): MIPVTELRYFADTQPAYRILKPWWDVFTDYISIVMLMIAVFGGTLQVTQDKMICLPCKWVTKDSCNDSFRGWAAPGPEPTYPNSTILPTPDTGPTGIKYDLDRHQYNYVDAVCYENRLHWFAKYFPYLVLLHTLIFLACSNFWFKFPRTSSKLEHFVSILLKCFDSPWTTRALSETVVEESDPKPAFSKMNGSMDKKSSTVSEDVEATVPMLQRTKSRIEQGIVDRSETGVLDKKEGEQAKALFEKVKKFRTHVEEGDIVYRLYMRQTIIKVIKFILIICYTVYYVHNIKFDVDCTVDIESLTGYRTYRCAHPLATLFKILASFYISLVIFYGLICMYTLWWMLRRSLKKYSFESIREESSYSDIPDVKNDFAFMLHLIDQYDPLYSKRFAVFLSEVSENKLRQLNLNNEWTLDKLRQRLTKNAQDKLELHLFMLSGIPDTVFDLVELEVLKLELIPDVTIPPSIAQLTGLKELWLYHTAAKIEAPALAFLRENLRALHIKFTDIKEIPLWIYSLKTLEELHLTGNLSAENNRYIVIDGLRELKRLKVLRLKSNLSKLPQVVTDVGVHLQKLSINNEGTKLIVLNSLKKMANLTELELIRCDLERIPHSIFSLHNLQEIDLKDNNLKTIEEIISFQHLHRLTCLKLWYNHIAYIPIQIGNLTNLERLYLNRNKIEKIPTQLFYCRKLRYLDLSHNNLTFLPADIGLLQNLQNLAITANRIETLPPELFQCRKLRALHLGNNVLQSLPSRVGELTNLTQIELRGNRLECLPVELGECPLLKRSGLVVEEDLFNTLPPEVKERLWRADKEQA
Method: (A) Whole-cell membrane currents were recorded at a holding potential of −50 mV by voltage steps ranging from −120 to 120 mV (in steps of 20 mV) in HEK293T cells. […] (C) Whole-cell VRAC currents were recorded at a holding potential of −50 mV by voltage steps ranging from −100 to 100 mV (in steps of 20 mV) in LN215 cells.
For volume-regulated anion channel (VRAC) currents measurement, the isotonic bath solution contained (in mM): 150 NaCl, 6 KCL, 1.5 CaCl2, 1 MgCl2, 10 glucose, 1 HEPES, and pH 7.4 with NaOH (320 mOsm). […] The pipette solution contained (in mM): 40 CsCl, 100 Cs-methanesulfonate, 0.5 EGTA, 1 MgCl2, 1.9 CaCl2, 5 EGTA, 4 Tris−ATP, 10 HEPES, and pH 7.2 with CsOH (290 mOsm). Pipettes were pulled from borosilicate glass and had resistances of 3–5 MΩ after fire polishing. Seal resistances were between 3 and 10 GΩ. The liquid junction potential (~2.4 mV) was not corrected. After establishing the whole-cell configuration, whole-cell capacitance and series resistance were compensated with the amplifier circuitry. VRAC was activated by exposing LN215 cells to a 25% hypotonic bath solution. Whole-cell currents were elicited by applying hyperpolarizing and depolarizing voltage pulses from a holding potential of 0 mV to potentials between −100 mV and +100 mV or −120 mV and +120 mV in steps of 20 mV. Recordings were made at room temperature. […]

[2] = test system: ATP-induced intracellular calcium signaling in FRT cells; assay: Intracellular calcium measurement (Fluo-4) in FRT cells; assay type: cell-based, rat; details: 100 μM ATP
Method: (A) Representative Fluo4 fluorescence traces from 3 independent experiments in FRT cells. […] (B,C) Representative apical membrane currents from 3–4 independent experiments in FRT cells expressing human ANO1. […] (D) Representative YFP fluorescence traces in FRT cells expressing human ANO2. […] (E) Representative Fluo4 fluorescence traces from 3 independent experiments in FRT cells. Cells were pretreated with DCPIB for 10 min followed by application of 100 μM ATP. (F) Representative apical membrane currents in FRT cells expressing human ANO1.
FRT cells were plated on 96-well black-walled microplates and loaded with Fluo-4 NW according to the manufacturer’s protocol (Invitrogen, Carlsbad, CA, USA). […] The 96-well plates were transferred to a plate reader for fluorescence assay.

hERG K+ channel = molecular target: T2, hERG K+ channel (Homo sapiens, UniProt Q12809); assay: FluxOR thallium flux assay in HEK293T cells expressing hERG; assay type: cell-based
T2 construct: expressed in transfected cells; called HEK293
T2 sequence (Q12809 whole entry): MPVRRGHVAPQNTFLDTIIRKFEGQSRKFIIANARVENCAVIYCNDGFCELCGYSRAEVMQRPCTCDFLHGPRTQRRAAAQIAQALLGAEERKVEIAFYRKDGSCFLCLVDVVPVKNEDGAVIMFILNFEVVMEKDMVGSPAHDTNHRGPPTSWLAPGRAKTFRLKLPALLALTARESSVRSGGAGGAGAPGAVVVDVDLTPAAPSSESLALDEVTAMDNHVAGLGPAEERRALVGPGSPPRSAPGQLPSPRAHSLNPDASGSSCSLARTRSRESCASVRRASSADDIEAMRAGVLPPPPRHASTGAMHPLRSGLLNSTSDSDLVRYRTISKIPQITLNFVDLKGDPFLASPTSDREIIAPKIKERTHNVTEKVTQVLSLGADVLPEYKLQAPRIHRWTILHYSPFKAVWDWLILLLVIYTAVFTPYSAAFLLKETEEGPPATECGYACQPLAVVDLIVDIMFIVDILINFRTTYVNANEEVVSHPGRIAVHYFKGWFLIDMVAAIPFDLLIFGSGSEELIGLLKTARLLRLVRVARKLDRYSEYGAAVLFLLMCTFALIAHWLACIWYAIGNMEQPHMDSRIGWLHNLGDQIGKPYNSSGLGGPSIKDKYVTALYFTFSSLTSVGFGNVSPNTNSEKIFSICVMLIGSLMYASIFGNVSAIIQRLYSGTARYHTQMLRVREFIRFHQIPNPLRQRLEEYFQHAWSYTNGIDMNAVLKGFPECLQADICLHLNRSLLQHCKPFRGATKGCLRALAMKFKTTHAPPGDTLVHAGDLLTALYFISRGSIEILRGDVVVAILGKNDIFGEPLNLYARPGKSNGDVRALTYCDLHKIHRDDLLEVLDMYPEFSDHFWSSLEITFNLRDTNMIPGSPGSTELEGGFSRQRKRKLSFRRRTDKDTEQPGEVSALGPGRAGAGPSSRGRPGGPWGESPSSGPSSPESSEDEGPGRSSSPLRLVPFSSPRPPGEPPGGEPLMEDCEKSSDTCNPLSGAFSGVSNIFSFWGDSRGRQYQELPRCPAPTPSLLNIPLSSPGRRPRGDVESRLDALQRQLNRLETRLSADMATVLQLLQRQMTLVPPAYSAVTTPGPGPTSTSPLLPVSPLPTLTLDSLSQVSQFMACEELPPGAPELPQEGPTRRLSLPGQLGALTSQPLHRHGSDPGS
Method: (C) Summary of dose-response (mean ± S.E., n = 5). […] (F) Summary of dose−response (mean ± S.E., n = 6).
HEK293 cells stably expressing human Kv11.1 (hERG) were cultured in 96-well plates. After 48 h, the cells were incubated at 28 °C for 4 h to increase the membrane expression of hERG. The culture medium was replaced with a 80 μL/well of FluxOR (Invitrogen, Waltham, MA, USA) loading buffer and incubated for 1 h at 37 °C in the dark. After removing the loading buffer, 100 μL of assay buffer was added to each well. […] FluxOR fluorescence (excitation/emission: 490/525 nm) was recorded for 4 s before the addition of 20 μL of stimulus buffer containing thallium ions, and the fluorescence was recorded. FluxOR fluorescence was recorded and analyzed using the FLUOstar Omega microplate reader (BMG Labtech, Ortenberg, Germany) and the MARS Data Analysis Software (BMG Labtech, Ortenberg, Germany). All buffers were prepared according to the manufacturer’s instructions.

VRAC = molecular target: T3, VRAC (Homo sapiens, UniProt Q8IWT6); assay: cell-based; details: LN215 cells
T3 sequence (Q8IWT6 1-810): T1 sequence (Q8IWT6 1-810)

COc1cccc(C(c2c(O)c3ccccc3oc2=O)c2c(O)c3ccccc3oc2=O)c1O [VI-116, 3,3′-((2-hydroxy-3-methoxyphenyl)methylene)bis(4-hydroxy-2H-chromen-2-one)]
effect on cell viability (NIH-3T3 cells): did not affect cell viability
effect on hypotonic perfusion activated ICl, swell [1]: completely blocked
effect on intracellular calcium signaling ([2]; 30 μM): weak inhibitory effect
effect on ATP-induced increase in intracellular calcium levels ([2]; up to 10 μM): no effect; also recorded: did not affect
effect on hERG K+ channel activity (hERG K+ channel; 10 μM): minimal inhibitory effect
IC50 (hERG K+ channel; thallium flux, HEK293T cells expressing hERG, n = 6): 89600 nM
IC50 (VRAC; VRAC IC50, YFP fluorescence quenching, hypotonic solution 5 min, n = 4): 1280 nM and 1270 nM and 1300 nM
IC50 (VRAC; VRAC IC50 in the presence of 10% FBS, medium containing 10% FBS, 5 min): 6890 nM
